Reference: patent US8802597B2, “Herbicidal pyrimidines” (E I du Pont de Nemours and Company, priority 2003, dated 2014)

Columns and labels:
Test in all cases: Test G pre/postemergence
Type in all cases: in vivo
[1] = test system: common purslane (Portulaca oleracea)
How it was run: (§1)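 Test chemicals in a non-phytotoxic solvent blend with surfactant are applied to soil after seeding or to foliage of 2–18 cm seedlings. Greenhouse response is scored visually at 12–21 days on a 0 to 100 control scale.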

[2] = test system: common sowthistle (Sonchus oleraceous)
How it was run: as §1

kochia (Kochia scoparia) = test system: kochia (Kochia scoparia)
How it was run: as §1

[3] = test system: purple nutsedge (Cyperus rotundus)
How it was run: as §1

[4] = test system: spanishneedles (Bidens bipinnata)
How it was run: as §1

[5] = Postemergence, 250 g ai/ha, scale 0 to 100
[6] = Postemergence, 16 g ai/ha, scale 0 to 100
[7] = Postemergence, 31 g ai/ha, scale 0 to 100
[8] = Postemergence, 62 g ai/ha, scale 0 to 100
[9] = Postemergence, 125 g ai/ha, scale 0 to 100
[10] = Preemergence, 16 g ai/ha, scale 0-100
[11] = Preemergence, 31 g ai/ha, scale 0-100
[12] = Preemergence, 62 g ai/ha, scale 0-100
[13] = Preemergence, 125 g ai/ha, scale 0-100
[14] = Preemergence, 250 g ai/ha, scale 0-100
[15] = Postemergence, 8 g ai/ha, scale 0 to 100
[16] = Preemergence, 8 g ai/ha, scale 0-100

Nc1nc(C2CC2)nc(C(=O)[O-])c1Cl.[Na+] [Compound 77, 6-amino-5-chloro-2-cyclopropyl-4-pyrimidinecarboxylic acid monosodium salt]
Plant response rating, Purslane [1, 5]: 85
Plant response rating, Purslane [1, 6]: 20
Plant response rating, Purslane [1, 7]: 20
Plant response rating, Purslane [1, 8]: 60
Plant response rating, Purslane [1, 9]: 70
Plant response rating, Purslane [1, 10]: 45
Plant response rating, Purslane [1, 11]: 60
Plant response rating, Purslane [1, 12]: 75
Plant response rating, Purslane [1, 13]: 100
Plant response rating, Purslane [1, 14]: 100
Plant response rating, Sowthistle [2, 5]: 95
Plant response rating, Sowthistle [2, 6]: 75
Plant response rating, Sowthistle [2, 7]: 90
Plant response rating, Sowthistle [2, 8]: 90
Plant response rating, Sowthistle [2, 9]: 95
Plant response rating, Sowthistle [2, 10]: 80
Plant response rating, Sowthistle [2, 11]: 100
Plant response rating, Sowthistle [2, 12]: 100
Plant response rating, Sowthistle [2, 13]: 100
Plant response rating, Sowthistle [2, 14]: 100
Plant response rating, Kochia (kochia (Kochia scoparia); [5]): 98
Plant response rating, Kochia (kochia (Kochia scoparia); [6]): 90
Plant response rating, Kochia (kochia (Kochia scoparia); [7]): 95
Plant response rating, Kochia (kochia (Kochia scoparia); [8]): 98
Plant response rating, Kochia (kochia (Kochia scoparia); [9]): 98
Plant response rating, Kochia (kochia (Kochia scoparia); [10]): 85
Plant response rating, Kochia (kochia (Kochia scoparia); [11]): 95
Plant response rating, Kochia (kochia (Kochia scoparia); [12]): 95
Plant response rating, Kochia (kochia (Kochia scoparia); [13]): 100
Plant response rating, Kochia (kochia (Kochia scoparia); [14]): 100
Plant response rating, Nutsedge, Purple [3, 5]: 40
Plant response rating, Nutsedge, Purple [3, 6]: 0
Plant response rating, Nutsedge, Purple [3, 7]: 0
Plant response rating, Nutsedge, Purple [3, 8]: 0
Plant response rating, Nutsedge, Purple [3, 9]: 0
Plant response rating, Nutsedge, Purple [3, 10]: 100
Plant response rating, Nutsedge, Purple [3, 11]: 100
Plant response rating, Nutsedge, Purple [3, 12]: 100
Plant response rating, Nutsedge, Purple [3, 13]: 100
Plant response rating, Nutsedge, Purple [3, 14]: 100
Plant response rating, Spanishneedles [4, 5]: 98
Plant response rating, Spanishneedles [4, 6]: 75
Plant response rating, Spanishneedles [4, 7]: 95
Plant response rating, Spanishneedles [4, 8]: 98
Plant response rating, Spanishneedles [4, 9]: 98

CCOC(=O)c1nc(-c2ccc(Cl)cc2)nc(N)c1Cl [Compound 64, ethyl 6-amino-5-chloro-2-(4-chlorophenyl)-4-pyrimidinecarboxylate]
Plant response rating, Purslane [1, 15]: 0
Plant response rating, Purslane [1, 6]: 0
Plant response rating, Purslane [1, 7]: 0
Plant response rating, Purslane [1, 8]: 60
Plant response rating, Purslane [1, 16]: 0
Plant response rating, Purslane [1, 10]: 0
Plant response rating, Purslane [1, 11]: 0
Plant response rating, Purslane [1, 12]: 35
Plant response rating, Sowthistle [2, 15]: 65
Plant response rating, Sowthistle [2, 6]: 80
Plant response rating, Sowthistle [2, 7]: 80
Plant response rating, Sowthistle [2, 8]: 80
Plant response rating, Sowthistle [2, 16]: 0
Plant response rating, Sowthistle [2, 10]: 0
Plant response rating, Sowthistle [2, 11]: 35
Plant response rating, Sowthistle [2, 12]: 90
Plant response rating, Kochia (kochia (Kochia scoparia); [15]): 65
Plant response rating, Kochia (kochia (Kochia scoparia); [6]): 75
Plant response rating, Kochia (kochia (Kochia scoparia); [7]): 85
Plant response rating, Kochia (kochia (Kochia scoparia); [8]): 90
Plant response rating, Kochia (kochia (Kochia scoparia); [16]): 0
Plant response rating, Kochia (kochia (Kochia scoparia); [10]): 0
Plant response rating, Kochia (kochia (Kochia scoparia); [11]): 10
Plant response rating, Kochia (kochia (Kochia scoparia); [12]): 15
Plant response rating, Nutsedge, Purple [3, 15]: 0
Plant response rating, Nutsedge, Purple [3, 6]: 35
Plant response rating, Nutsedge, Purple [3, 7]: 35
Plant response rating, Nutsedge, Purple [3, 8]: 35
Plant response rating, Nutsedge, Purple [3, 16]: 0
Plant response rating, Nutsedge, Purple [3, 10]: 0
Plant response rating, Nutsedge, Purple [3, 11]: 0
Plant response rating, Nutsedge, Purple [3, 12]: 0
Plant response rating, Spanishneedles [4, 15]: 65
Plant response rating, Spanishneedles [4, 6]: 75
Plant response rating, Spanishneedles [4, 7]: 90
Plant response rating, Spanishneedles [4, 8]: 90
Plant response rating, Spanishneedles [4, 16]: 0
Plant response rating, Spanishneedles [4, 10]: 0
Plant response rating, Spanishneedles [4, 11]: 0
Plant response rating, Spanishneedles [4, 12]: 35
